Assay results taken from the supplement of paper PMC10307832.

Assays:
Experiment in all cases: relative viability (nuclei count vs DMSO), 5 days (fraction); higher = more cells survive
XMD14-99 + Linsitinib = compound: CN1CCN(CC1)C2=CC(=C(C=C2)NC3=NC(=C(S3)C(=O)C4=C(C=CC=C4Cl)Cl)N)OC [XMD14-99] + C[C@]1(O)C[C@@H](c2nc(-c3ccc4ccc(-c5ccccc5)nc4c3)c3c(N)nccn32)C1 [Linsitinib] (partner 1 µM)
Summary of the method: (§1)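 For relative viability, nuclei counts in treated wells were divided by those in vehicle wells. Lung cancer cell lines had been pin-tool dosed in 1536-well plates the day after seeding and cultured for 5 days, then fixed and stained in one step (final 0.05% Triton X-100, 1% formaldehyde, 1 ug/ml Hoechst) and imaged at 4×. Doses were one drug alone or a fixed anchor-drug dose plus five library-drug doses (not always all listed) in √10 steps, and values are duplicate-plate medians.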

AZD1208 + Crizotinib = compound: N[C@@H]1CCCN(c2c(/C=C3\SC(=O)NC3=O)cccc2-c2ccccc2)C1 [AZD1208] + C[C@@H](Oc1cc(-c2cnn(C3CCNCC3)c2)cnc1N)c1c(Cl)ccc(F)c1Cl [Crizotinib] (partner 1 µM)
Summary of the method: as §1

AZD1208 + Pemetrexed = compound: N[C@@H]1CCCN(c2c(/C=C3\SC(=O)NC3=O)cccc2-c2ccccc2)C1 [AZD1208] + Nc1nc2[nH]cc(CCc3ccc(C(=O)N[C@@H](CCC(=O)O)C(=O)O)cc3)c2c(=O)[nH]1 [Pemetrexed] (partner 0.2 µM)
Summary of the method: as §1

AZD1208 + Olaparib = compound: N[C@@H]1CCCN(c2c(/C=C3\SC(=O)NC3=O)cccc2-c2ccccc2)C1 [AZD1208] + O=C(c1cc(Cc2n[nH]c(=O)c3ccccc23)ccc1F)N1CCN(C(=O)C2CC2)CC1 [Olaparib] (partner 8 µM)
Summary of the method: as §1

Cell Line	relative viability (XMD14-99 + Linsitinib; first compound 0.08 µM)	relative viability (XMD14-99 + Linsitinib; first compound 0.8 µM)	relative viability (XMD14-99 + Linsitinib; first compound 2.53 µM)	relative viability (XMD14-99 + Linsitinib; first compound 8 µM)	relative viability (AZD1208 + Crizotinib; first compound 0.08 µM)	relative viability (AZD1208 + Crizotinib; first compound 0.253 µM)	relative viability (AZD1208 + Crizotinib; first compound 0.8 µM)	relative viability (AZD1208 + Crizotinib; first compound 2.53 µM)	relative viability (AZD1208 + Crizotinib; first compound 8 µM)	relative viability (AZD1208 + Pemetrexed; first compound 0.08 µM)	relative viability (AZD1208 + Pemetrexed; first compound 0.253 µM)	relative viability (AZD1208 + Pemetrexed; first compound 2.53 µM)	relative viability (AZD1208 + Pemetrexed; first compound 8 µM)	relative viability (AZD1208 + Olaparib; first compound 0.08 µM)	relative viability (AZD1208 + Olaparib; first compound 0.253 µM)	relative viability (AZD1208 + Olaparib; first compound 0.8 µM)	relative viability (AZD1208 + Olaparib; first compound 2.53 µM)	relative viability (AZD1208 + Olaparib; first compound 8 µM)	relative viability (AZD1208 + Pemetrexed; first compound 0.8 µM)
LK-2	0.398	0.369	0.659	0.471	0.28	0.211	0.212	0.275	0.252	0.344	0.25	0.219	0.163	0.677	0.736	0.444	0.324	0.353	
HCC-366	0.619	0.641	0.781	0.602	0.479	0.593	0.536	0.452	0.246	0.182	0.206	0.581	0.223	0.352	0.311	0.283	0.316	0.281	0.194
BEN	0.872	0.816	0.81	0.762	0.729	0.825	0.611	0.639	0.402	0.877	0.525	0.612	0.558	1.01	0.985	0.722	0.758	0.59	0.568
NCI-H2347	1.02	1.02	0.873	0.633	0.626	0.626	0.582	0.648	0.588	0.447	0.423	0.439	0.444	0.614	0.628	0.518	0.541	0.538	0.468
